Results as given in patent publication US8017607B2, “N-substituted-pyrrolidines as inhibitors of MDM2-P-53 interactions” (Hoffmann-La Roche Inc., priority 2009, dated 2011).
pIC50: −log10 of the molar value.

Molecular target: interaction between p53 and MDM2 proteins (recombinant GST-tagged MDM2, biotinylated p53 peptide) (Homo sapiens, UniProt Q00987)
Assay: HTRF assay of inhibition of the p53-MDM2 interaction
Type: binding
Conditions: bsa: 0.02%
Method: The ability of the compounds to inhibit the interaction between p53 and MDM2 proteins was measured by an HTRF (homogeneous time-resolved fluorescence) assay in which recombinant GST-tagged MDM2 binds to a peptide that resembles the MDM2-interacting region of p53 (Lane et al.). Binding of GST-MDM2 protein and p53-peptide (biotinylated on its N-terminal end) is registered by the FRET (fluorescence resonance energy transfer) between Europium (Eu)-labeled anti-GST antibody and streptavidin-conjugated Allophycocyanin (APC).
[…] Add 10 uL diluted compounds (1:5 dilution in reaction buffer) to each well, mix by shaking. Add 20 uL biotinylated p53 peptide (180 nM working solution) in reaction buffer to each well and mix on shaker. Incubate at 37° C. for 1 h. Add 20 uL streptavidin-APC and Eu-anti-GST antibody mixture (6 nM Eu-anti-GST and 60 nM streptavidin-APC working solution) in TBS buffer with 0.2% BSA, shake at room temperature for 30 minutes and read using a TRF-capable plate reader at 665 and 615 nm (Victor 5, Perkin ElmerWallac). If not specified, the reagents were purchased from Sigma Chemical Co.

interaction between p53 and MDM2 proteins (recombinant GST-tagged MDM2, biotinylated p53 peptide), sequence (Q00987 whole entry): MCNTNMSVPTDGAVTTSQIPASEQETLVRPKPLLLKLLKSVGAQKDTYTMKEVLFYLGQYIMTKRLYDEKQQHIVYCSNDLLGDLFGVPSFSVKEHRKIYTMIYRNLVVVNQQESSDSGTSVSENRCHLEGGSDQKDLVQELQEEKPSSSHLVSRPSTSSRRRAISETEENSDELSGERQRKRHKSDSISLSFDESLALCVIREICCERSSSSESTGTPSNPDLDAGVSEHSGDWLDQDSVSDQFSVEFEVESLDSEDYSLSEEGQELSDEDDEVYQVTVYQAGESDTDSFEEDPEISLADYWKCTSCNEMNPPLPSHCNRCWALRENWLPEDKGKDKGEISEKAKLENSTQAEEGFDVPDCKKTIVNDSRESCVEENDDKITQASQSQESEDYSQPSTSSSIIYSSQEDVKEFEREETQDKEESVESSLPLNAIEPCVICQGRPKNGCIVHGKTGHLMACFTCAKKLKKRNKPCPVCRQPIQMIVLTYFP

pIC50	Compound
6.57	CC(C)(C)C[C@@H]1CN(C(=O)NCC[C@H](O)CO)[C@H](c2cccc(Cl)c2F)[C@@]1(C#N)c1ccc(Cl)cc1F (mixture of isomers) [Example 4, rac-(2S,3S,4S)-2-(3-chloro-2-fluoro-phenyl)-3-(4-chloro-2-fluoro-phenyl)-3-cyano-4-(2,2-dimethyl-propyl)-pyrrolidine-1-carboxylic acid ((S)-3,4-dihydroxy-butyl)-amide]
5.49	CC(C)(C)C[C@@H]1CN(C(=O)Nc2cccc(-c3nnn[nH]3)c2)[C@H](c2cccc(Cl)c2F)[C@@]1(C#N)c1ccc(Cl)cc1F (racemic) [Example 16, rac-(2S,3S,4S)-2-(3-chloro-2-fluoro-phenyl)-3-(4-chloro-2-fluoro-phenyl)-3-cyano-4-(2,2-dimethyl-propyl)-pyrrolidine-1-carboxylic acid [3-(1H-tetrazol-5-yl)-phenyl]-amide]
5.76	CC(C)(C)C[C@@H]1CN(C(=O)Nc2ccncc2)[C@H](c2cccc(Cl)c2F)[C@@]1(C#N)c1ccc(Cl)cc1F (racemic) [Example 48, rac-(2S,3S,4S)-2-(3-chloro-2-fluoro-phenyl)-3-(4-chloro-2-fluoro-phenyl)-3-cyano-4-(2,2-dimethyl-propyl)-pyrrolidine-1-carboxylic acid pyridin-4-ylamide]
6.19	CC(C)(C)C[C@@H]1CN(C(=O)c2ccc(C(=O)O)cc2)[C@H](c2cccc(Cl)c2F)[C@@]1(C#N)c1ccc(Cl)cc1F (racemic) [Example 12, rac-4-[(2S,3S,4S)-2-(3-chloro-2-fluoro-phenyl)-3-(4-chloro-2-fluoro-phenyl)-3-cyano-4-(2,2-dimethyl-propyl)-pyrrolidine-1-carbonyl]-benzoic acid]
